# Laboratory results reported in patent US7417122B2, “Mammalian galanin receptors” (Schering Corporation, priority 1997, dated 2008).
# Non-standard residues stand in square brackets, D forms with d. Residues, ends and D or L forms follow the SMILES beside them.
# Molecular target: T1, rat GalR3 receptor (Rattus norvegicus, UniProt O88626)
# T1 construct: expressed in transfected cells; host or cells: COS-7 cells (ATCC CRL 1651), transient electroporation with pCR 3.1; membrane preparation
# T1 sequence (O88626 1-370 P53Q/R54G/T57Q/P127Q/R137C/A150G/W176L/A183R/T188A/F210L/C272I/R311C): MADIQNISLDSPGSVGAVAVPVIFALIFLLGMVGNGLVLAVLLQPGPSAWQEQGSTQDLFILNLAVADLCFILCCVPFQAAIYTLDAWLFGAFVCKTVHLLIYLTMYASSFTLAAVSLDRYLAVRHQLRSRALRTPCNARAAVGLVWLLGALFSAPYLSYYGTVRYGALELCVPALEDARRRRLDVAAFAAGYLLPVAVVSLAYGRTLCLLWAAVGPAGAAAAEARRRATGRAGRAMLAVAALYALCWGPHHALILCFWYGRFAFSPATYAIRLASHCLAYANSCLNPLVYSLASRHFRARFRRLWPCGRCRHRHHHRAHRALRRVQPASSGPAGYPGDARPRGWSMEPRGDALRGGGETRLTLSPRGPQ
# Assay: 125I-porcine galanin competition binding to membranes of COS-7 cells transfected with rat GalR3 receptor
# Details: FIG. 2, 125I-porcine galanin binding to rat GalR3 membranes
# Method: Transfection was carried out as follows. Confluent COS-7 cells (ATCC CRL 1651) grown in DMEVI supplemented with 10% fetal calfserum (FCS) with 100 units/ml penicillin and 100 μg/ml streptomycin were split 1:6 into 150 mm dishes (Nunc) three days prior to transfection. On the day of transfection, the cells were approximately 90% confluent and trypsinized off plates and washed two times with PBS without Mg^++ and Ca^++. The cells were resuspended in Krebs Ringer's buffer at a density of approximately 1.2×10^7 cells/ml. […]
# To each plate, 5 ml of 5 mM Hepes buffer (pH 7.4), 0.1 mM PMSF, and 0.1 mg/ml bacitracin were added and incubated at room temperature for 15 minutes. […] Protein concentrations were determined using a […] (bicinchoninic acid) method (Pierce, Rockford, Ill.).
# Binding of ^125I-porcine-galanin to the membrane preparations was performed in a buffer containing 25 mM Tris-Cl (pH7.4), 1% bovine serim albumin (w/v), 0.1% bacitracin, 2 μg/ml leupeptin and 10 mM MgCl2. […] All data were analyzed using non-linear regression software (Prism, GraphPad, San Diego, Calif.), and the Ki was calculated using the method of Cheng and Prusoff [Biochem. Pharmacol. 22:3099-3108 (1973)].
row,SMILES,competitive inhibition of the labeled galanin
1,CC(C)C[C@H](NC(=O)[C@H](CC(C)C)NC(=O)[C@@H](Cc1c[nH]c2ccccc12)NC(=O)[C@H](Cc1ccccc1)NC(=O)[C@@H](Cc1c[nH]c2ccccc12)NC(=O)[C@H](CCC(N)=O)NC(=O)[C@H](CCC(N)=O)NC(=O)[C@@H]1CCCN1C(=O)[C@H](CCCCN)NC(=O)[C@@H]1CCCN1C(=O)[C@@H](CCCNC(=N)N)NC(=O)[C@@H]1CCCN1C(=O)CNC(=O)[C@H](CC(C)C)NC(=O)[C@H](CC(C)C)NC(=O)[C@H](Cc1ccc(O)cc1)NC(=O)CNC(=O)[C@H](C)NC(=O)[C@H](CO)NC(=O)[C@H](CC(N)=O)NC(=O)[C@H](CC(C)C)NC(=O)[C@@H](NC(=O)[C@H](Cc1c[nH]c2ccccc12)NC(=O)CN)[C@@H](C)O)C(N)=O [chimeric galanin peptide C7] (H-GWTLNSAGYLLGP[dR]PKPQQ[dW]F[dW]LL-NH2; N-terminus and C-terminus assumed),competitive inhibitors
2,CC[C@H](C)[C@H](NC(=O)[C@H](C)NC(=O)[C@H](Cc1c[nH]cn1)NC(=O)[C@@H]1CCCN1C(=O)CNC(=O)[C@H](CC(C)C)NC(=O)[C@H](CC(C)C)NC(=O)[C@H](Cc1ccc(O)cc1)NC(=O)CNC(=O)[C@H](C)NC(=O)[C@H](CO)NC(=O)[C@H](CC(N)=O)NC(=O)[C@H](CC(C)C)NC(=O)[C@@H](NC(=O)[C@@H](N)Cc1c[nH]c2ccccc12)[C@@H](C)O)C(=O)N[C@@H](CC(=O)O)C(=O)N[C@@H](CC(N)=O)C(=O)N[C@@H](Cc1c[nH]cn1)C(=O)N[C@@H](CCCNC(=N)N)C(=O)N[C@@H](CO)C(=O)N[C@@H](Cc1ccccc1)C(=O)N[C@@H](CO)C(=O)N[C@@H](CC(=O)O)C(=O)N[C@@H](CCCCN)C(=O)N[C@@H](Cc1c[nH]cn1)C(=O)NCC(=O)N[C@@H](CC(C)C)C(=O)N[C@H](C(N)=O)[C@@H](C)O [galanin(2-29)],competitive inhibitors
